Read-outs that look alike come from different tables or passages of the source.
How the values were obtained:
[1] = system: E. faecalis VanA strain; test: Vancomycin potentiation screens VPS-20 and VPS-D-ala; format: cell-based, Enterococcus faecalis; conditions: 10 ug/ml test compound; for intrinsic activity against the control cells: no vancomycin; for vancomycin potentiation screen result: VPS-20 and/or VPS-D-ala
Method: (§1) In the VPS-20 protocol, vancomycin is used at 20 ug/ml, test compounds are used at 10 ug/ml (this is not critical, a range could be used as well). The growth medium is Brain Heart Infusion broth however, any of a variety of media which will support growth of the specific bacterial strain can be used. The VPS-D-Ala screen uses 8 ug/ml of vancomycin and 50 mM D-alanine. This amino acid is added to feed the bacteria excess alanine, which allows the bacteria to incorporate the alanine in some cases instead of incorporating the (resistance causing) D-lactate in the pentapeptide termini of the cell wall precursor. The presence of this D-alanine supplement thus makes the assay less stringent.
(§2) Inoculate E. faecalis VanA strain in BHI broth (pick a few colonies into 3 ml BHI with 2.56 ug/ml vancomycin and grow O/N at 35° C. in a shaker rotating at 225 rpm.
(§3) Dilute the O/N culture 1:50 in BHI with 2.56 ug/ml vancomycin (0.5 ml±24.5 ml BHI) in a 125-ml flask, put back in the 35° C. shaker until the cells grow to early log phase (OD600 about 0.2, takes approximately 2 hrs). Make a 1:800 dilution of the log phase culture with BHI broth. 50 ul of these diluted cells will be used as the inoculum in the assay as described below. Add the inoculum after the other reagents.
(§4) Meanwhile, test the inoculum concentration and purity: Make 3 serial 10-fold dilutions of the inoculum in 0.2 ml BHI broth. Plate 100 ul on TSA agar plates (trypticase soy agar), incubate at 35° C. O/N, count the colonies to estimate the CFU/ml in the inoculum (it should be 10^4 -10^5 CFU/ml).
(§5) Make vancomycin stock at 50 mg/ml in ddH2 O. Filter sterilize with 0.2 um filter, and keep in the freezer. On the day of the assay, dilute vancomycin to 50 ug/ml (for VPS-20) or 54 ug/ml (for VPS-D-ala) in BHI broth.
Prepare D-alanine (Sigma) at 800 mM in ddH2O. Filter sterilize with 0.2 um filter.
(§6) The test compounds are from 0.1 mg/ml plates in 10% DMSO, 90% 50 mM HEPES, pH 7.3. Thaw at room temperature.
1. Take 40 ul 50 ug/ml vancomycin in BHI to each well of the assay plate (Final volume will be 100 ul, making vancomycin concentration 20 ug/ml)
2. For each assay plate, prepare a toxicity control plate; instead of pipetting 40 ul of the vancomycin, use 40 ul of BHI broth in each well of the assay plate.
3. Dilute 800 mM D-alanine to 200 mM in BHI broth, take 25 ul of the 200 mM D-alanine to both the assay plate and the toxic control plate.
4. Take 15 ul of 54 ug/ml vancomycin in BHI to each well of the assay plate (Final volume will be 100 ul, making vancomycin concentration 8 ug/ml)
5. For each assay plate, prepare a toxicity control plate; instead of pipetting 15 ul of the vancomycin, use 15 ul of BHI broth in each well of the assay plate.
6. Take 10 ul/well of the test compounds to the assay plates and the toxicity control plates. Do this in perfect register in the microtiter plates (change tips), and work using sterile technique (Final concentration will be 10 ug/ml test compounds, 1% DMSO). This must be done with separate tips, in perfect register.
7. Add 10 ul of 10% DMSO, 90% 50 mM HEPES, pH 7.3 in columns 1 and 12 in each plates.
8. Inoculate all wells in columns 2 to 11 with 50 ul 1/800 diluted log phase culture (prepared as indicated above). Use 50 ul sterile BHI instead of inoculum for the negative growth controls in well A-D in columns 1 and well E-H in columns 12. Add 50 ul of inoculum to Wells E-H in columns 1 and wells A-D in columns 12 for the positive growth controls.
(§7) 11. […] Remove mylar lids and check the cell density (A600) in 21-24 hours using a microtiter plate reader. The plates will need to be agitated carefully to resuspend the cells before reading.

[2] = system: E. faecalis VanA strain; test: Vancomycin potentiation screen VPS-20; format: cell-based; conditions: Enterococcus faecalis, 10 ug/ml test compound
Method: as §1, §2, §3, §4, §5, §6
1. […]
as §7

[3] = system: Enterococcus faecalis VanA; test: Vancomycin MIC of the test strain; checkerboard with D-alanine; format: cell-based
Method: In addition, in the bacterial strain used in the assays below, vancomycin induces the resistance mechanism. […] However, it is likely that the VPS-8 protocol (or one with a similar glycopeptide concentration)will be useful in conjunction with bacterial strains in which the glycopeptide resistance is not induced by a glycopeptide, such as strains in which the resistance is constitutively expressed.
9. […] 25 ul of the 800 mM D-alanine, 15 ul of 134 ug/ml vancomycin, 10 ul of 10% DMSO, 90% 50 mM HEPES, pH 7.3, 50 ul of BHI broth (negative control) or the inoculum (positive control).

[4] = system: Enterococcus faecalis VanB; test: Checkerboard assay / dose range study with vancomycin; format: cell-based
Source text: (§8) FIG. 9a provides the results of checkerboard assays showing the MIC reduction for vancomycin in the presence of a range of concentrations of brazilin against two Enterococcus faecalis strains, one VanA and the other VanB. […] Similarly, FIG. 9b provides the results of checkerboard assays showing the MIC reduction for vancomycin in the presence of a range of concentrations of 6-ethyl-7-[1-oxo-3-(1-pyrrolidino)]propyl-1,2,3,4-tetrahydro-1,1,4,4-tetramethylnaphthalene (EOPPTTN).
(§9) Two of the three compounds (brazilin and 6-ethyl-7-[oxo-3-(1-pyrrolidino)]propyl-1,2,3,4-tetrahydro-1,1,4,4-tetramethylnaphthalene) have been examined for synergy with vancomycin. […] Two examples of reasons for alterations are for further optimization, and for modification for use with other bacterial strains or species.

[5] = system: Enterococcus faecalis VanA; test: as above; format: cell-based
Source text: as §8, §9

[6] = system: MRSA; test: Potentiation screening assay: methicillin MIC reduction in MRSA; format: cell-based, Staphylococcus aureus; conditions: Staphylococcus aureus; MRSA, methicillin alone
Method: After regrowth at 35° C. to an OD600 of 0.2-0.4 (1-2 hrs.), the cells are diluted 1/1000 in MHB. […] The plate is placed in a humidified 35° C. incubator for 5-24 hours, and cell growth or inhibition is read as turbidity (OD600). Two positive and one negative controls for growth are cells grown MHB, cells grown in MHB plus 20 μg/ml methicillin alone (without test compound), and uninoculated MHB respectively.
Compounds which meet the first two criteria for follow-up are evaluated in a standard microdilution assessment of the MIC with methicillin for MRSA. (see Lorian, Antibiotics in Laboratory Medicine, 3rd ed., pp. 72-75 (1991).) In order to be carried further, the MIC of methicillin preferably is reduced in the presence of the potentiator to at most twice the MIC of a susceptible strain for methicillin.
MICs for the compounds were determined in the presence of 0, 5, and 10 μg/ml of each compound. MRSA cells were grown in the presence of 0, 5, and 10 μg/ml test compound and concentrations of methicillin obtained from serial two-fold dilutions starting at 1024 μg/ml to 0.002 μg/ml (This range can be extended or refined as appropriate.) as follows: A fresh inoculum of MRSA cells was grown at 35° C. in Mueller-Hinton Broth (MHB) overnight and then diluted 1/50 in the same medium. After regrowth at 35° C. to an OD600 of 0.2-0.4 (1-2 hrs.), the cells were diluted 1/1000 in MHB. […] The plate was placed in a humidified 35° C. incubator for 24 hours, and cell growth or inhibition was read as turbidity (OD600).

[7] = system: MRSA Col cells; test: Time-kill curve with methicillin; format: cell-based, Staphylococcus aureus; conditions: methicillin only; at 24 hours
Method: FIG. 3a is a graph of the number of viable MRSA Col cells/ml versus growth time in hours as determined by the method of Example 4. The graph presents the time kill curve for the first potentiating compound from FIG. 1 at 10 μg/ml with methicillin at 20 μg/ml, and curves for controls (drug-free, methicillin only, and potentiator only). Viable cell counts for all controls were greater than 5×10^8 cells/ml at 24 hours, while the viable cell count for methicillin plus potentiator was approximately 5×10^3 cells/ml after 24 hours.
A standard time-kill method (see Eliopolous & Moellering, Ch. 13 in Antibiotics in Laboratory Medicine, 3rd ed., Lorian ed., at pp. 441-444) is used to characterize whether the potentiator-drug combination is bacteriostatic or bactericidal. As controls, normal growth of the pathogen (without drug or potentiator) and the effects of the drug alone and the potentiator alone are assessed using the same inoculum culture as is used in the combination time-kill test. Either bacteriostatic or bactericidal effect should be confirmed for the potentiators to progress to further testing.

[8] = no vancomycin, read-out: percent intrinsic inhibition in the VPS-20 control (without vancomycin)

With `O=C(NCc1ccccc1)c1ccccc1S` [N-benzyl thiosalicylamide] the “intrinsic activity against the control cells” value [1] was “little intrinsic activity”, the “vancomycin potentiation screen result” value [1] was “very potent inhibitor in the assay” and the inhibition at 10 µg/mL ([2]; 20 ug/ml vancomycin, read-out: percent growth inhibition in the VPS-20 assay (with vancomycin)) was 88%. It also gave an inhibition at 10 µg/mL [2, 8] of 4%.
For `CN[C@H](CC(C)C)C(=O)N[C@H]1C(=O)N[C@@H](CC(N)=O)C(=O)N[C@H]2C(=O)N[C@H]3C(=O)N[C@H](C(=O)N[C@H](C(=O)O)c4cc(O)cc(O)c4-c4cc3ccc4O)[C@H](O)c3ccc(c(Cl)c3)Oc3cc2cc(c3O[C@@H]2O[C@H](CO)[C@@H](O)[C@H](O)[C@H]2O[C@H]2C[C@](C)(N)[C@H](O)[C@H](C)O2)Oc2ccc(cc2Cl)[C@H]1O` [vancomycin], the “MIC of vancomycin in the presence of D-alanine” value ([3]; 200 mM D-alanine) was 16 µg/mL and the MIC ([3]; Enterococcus faecalis, read-out: MIC of vancomycin) was 512 µg/mL.
`Oc1ccc2c(c1)OC[C@]1(O)Cc3cc(O)c(O)cc3[C@H]21` [brazilin] was tested, and the “intrinsic activity against the control cells” value [1] was “some intrinsic activity against the control cells”, the “vancomycin potentiation screen result” value [1] was “positive, but less than N-benzyl thiosalicylamide” and the inhibition at 10 µg/mL [2, 8] was 32%. For the same compound, the “vancomycin MIC reduction in checkerboard assay” value ([4]; compound 0-20 μg/ml, VanB) was “significant reduction in the vancomycin MIC”, the synergy with vancomycin ([4]; dose range study, VanB phenotype) was “synergy” and the “vancomycin MIC reduction in checkerboard assay” value ([5]; compound 0-20 μg/ml, VanA) was “significant reduction in the vancomycin MIC”. For the same compound, the synergy with vancomycin ([5]; dose range study, VanA phenotype) was “synergy”.
`COc1cccc(OC)c1C(=O)N[C@@H]1C(=O)N2[C@@H]1SC(C)(C)[C@@H]2C(=O)O` [methicillin, reference compound] was tested, and the MIC [6] was greater than 100 µg/mL and the “viable cell count, methicillin only (control)” value [7] was “greater than 5×10^8 cells/ml”.

Reference: patent US5883074A, “Potentiators of antibacterial agents” (priority 1995, dated 1999)
